In ChEMBL document CHEMBL1743141, “Membrane transporters in drug development” (Nat Rev Drug Discov, 2010):

Legend:
Type in all cases: ADME
[1] = target: T1, Multidrug and toxin extrusion protein 1 (Homo sapiens, UniProt Q96FL8); assay: Substrates of transporters of clinical importance in the absorption and disposition of drugs, MATE1
T1 sequence (Q96FL8 whole entry): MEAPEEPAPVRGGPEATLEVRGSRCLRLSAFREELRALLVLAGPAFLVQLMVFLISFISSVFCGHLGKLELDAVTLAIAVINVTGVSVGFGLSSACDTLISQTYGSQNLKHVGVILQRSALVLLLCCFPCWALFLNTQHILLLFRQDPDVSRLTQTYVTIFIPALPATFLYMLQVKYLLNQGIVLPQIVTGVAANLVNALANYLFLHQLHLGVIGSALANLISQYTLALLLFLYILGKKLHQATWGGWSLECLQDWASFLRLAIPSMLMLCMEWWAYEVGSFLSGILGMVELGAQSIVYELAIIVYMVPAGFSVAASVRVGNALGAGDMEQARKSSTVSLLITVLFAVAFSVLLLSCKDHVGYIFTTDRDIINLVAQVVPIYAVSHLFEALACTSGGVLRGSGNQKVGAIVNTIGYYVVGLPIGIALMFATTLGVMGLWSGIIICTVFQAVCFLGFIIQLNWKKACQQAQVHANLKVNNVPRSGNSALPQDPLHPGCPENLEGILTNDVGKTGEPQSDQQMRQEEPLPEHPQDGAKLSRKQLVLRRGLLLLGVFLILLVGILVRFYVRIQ

[2] = target: T2, Multidrug and toxin extrusion protein 2 (Homo sapiens, UniProt Q86VL8); assay: Substrates of transporters of clinical importance in the absorption and disposition of drugs, MATE2-K
T2 sequence (Q86VL8 whole entry): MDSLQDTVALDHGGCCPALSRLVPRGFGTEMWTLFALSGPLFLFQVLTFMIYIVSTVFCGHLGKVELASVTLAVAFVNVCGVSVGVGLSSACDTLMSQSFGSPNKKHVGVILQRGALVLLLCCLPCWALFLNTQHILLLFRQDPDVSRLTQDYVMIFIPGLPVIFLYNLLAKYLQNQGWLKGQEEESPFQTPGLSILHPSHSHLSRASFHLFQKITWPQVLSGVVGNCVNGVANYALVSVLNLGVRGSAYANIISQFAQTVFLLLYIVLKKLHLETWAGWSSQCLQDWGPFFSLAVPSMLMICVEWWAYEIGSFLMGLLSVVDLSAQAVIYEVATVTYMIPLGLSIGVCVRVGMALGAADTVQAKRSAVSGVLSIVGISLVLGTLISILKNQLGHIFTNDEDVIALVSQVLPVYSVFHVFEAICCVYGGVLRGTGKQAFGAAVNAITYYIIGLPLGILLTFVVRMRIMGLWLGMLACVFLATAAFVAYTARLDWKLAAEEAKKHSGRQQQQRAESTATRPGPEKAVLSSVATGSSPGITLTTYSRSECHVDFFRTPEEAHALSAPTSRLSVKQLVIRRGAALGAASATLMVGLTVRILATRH

[3] = target: T3, Solute carrier family 22 member 1 (Homo sapiens, UniProt O15245); assay: Substrates of transporters of clinical importance in the absorption and disposition of drugs, OCT1
T3 sequence (O15245 whole entry): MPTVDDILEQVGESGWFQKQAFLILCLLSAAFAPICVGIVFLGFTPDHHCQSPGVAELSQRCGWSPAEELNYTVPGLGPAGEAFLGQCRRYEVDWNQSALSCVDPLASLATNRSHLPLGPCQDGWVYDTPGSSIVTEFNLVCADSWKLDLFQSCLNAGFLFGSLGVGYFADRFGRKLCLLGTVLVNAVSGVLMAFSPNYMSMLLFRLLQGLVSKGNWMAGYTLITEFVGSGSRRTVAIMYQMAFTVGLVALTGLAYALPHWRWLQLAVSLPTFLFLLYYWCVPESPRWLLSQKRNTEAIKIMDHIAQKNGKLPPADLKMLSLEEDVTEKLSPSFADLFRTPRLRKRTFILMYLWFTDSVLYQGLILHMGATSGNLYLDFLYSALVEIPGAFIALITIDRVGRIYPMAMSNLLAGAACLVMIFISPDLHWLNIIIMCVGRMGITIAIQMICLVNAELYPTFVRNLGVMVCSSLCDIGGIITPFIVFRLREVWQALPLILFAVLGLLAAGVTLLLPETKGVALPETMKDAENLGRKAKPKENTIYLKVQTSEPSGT

[4] = target: T4, Solute carrier family 22 member 2 (Homo sapiens, UniProt O15244); assay: Substrates of transporters of clinical importance in the absorption and disposition of drugs, OCT2
T4 sequence (O15244 whole entry): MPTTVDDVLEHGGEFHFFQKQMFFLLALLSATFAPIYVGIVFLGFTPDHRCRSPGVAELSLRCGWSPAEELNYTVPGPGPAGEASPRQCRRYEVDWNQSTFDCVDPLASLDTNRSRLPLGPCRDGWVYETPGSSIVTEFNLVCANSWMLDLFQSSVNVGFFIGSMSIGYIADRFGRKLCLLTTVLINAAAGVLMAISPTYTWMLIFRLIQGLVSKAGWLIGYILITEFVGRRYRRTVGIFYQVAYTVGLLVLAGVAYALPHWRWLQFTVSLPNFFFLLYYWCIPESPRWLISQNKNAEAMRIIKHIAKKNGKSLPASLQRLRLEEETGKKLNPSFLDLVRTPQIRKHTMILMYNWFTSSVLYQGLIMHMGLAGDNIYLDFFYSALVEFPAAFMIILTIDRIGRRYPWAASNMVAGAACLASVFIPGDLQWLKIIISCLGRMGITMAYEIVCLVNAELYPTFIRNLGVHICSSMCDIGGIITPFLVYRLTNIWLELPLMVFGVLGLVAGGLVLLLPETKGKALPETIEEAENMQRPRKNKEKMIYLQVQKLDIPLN

[5] = target: T5, Broad substrate specificity ATP-binding cassette transporter ABCG2 (Homo sapiens, UniProt Q9UNQ0); assay: Substrates of transporters of clinical importance in the absorption and disposition of drugs, BCRP
T5 sequence (Q9UNQ0 whole entry): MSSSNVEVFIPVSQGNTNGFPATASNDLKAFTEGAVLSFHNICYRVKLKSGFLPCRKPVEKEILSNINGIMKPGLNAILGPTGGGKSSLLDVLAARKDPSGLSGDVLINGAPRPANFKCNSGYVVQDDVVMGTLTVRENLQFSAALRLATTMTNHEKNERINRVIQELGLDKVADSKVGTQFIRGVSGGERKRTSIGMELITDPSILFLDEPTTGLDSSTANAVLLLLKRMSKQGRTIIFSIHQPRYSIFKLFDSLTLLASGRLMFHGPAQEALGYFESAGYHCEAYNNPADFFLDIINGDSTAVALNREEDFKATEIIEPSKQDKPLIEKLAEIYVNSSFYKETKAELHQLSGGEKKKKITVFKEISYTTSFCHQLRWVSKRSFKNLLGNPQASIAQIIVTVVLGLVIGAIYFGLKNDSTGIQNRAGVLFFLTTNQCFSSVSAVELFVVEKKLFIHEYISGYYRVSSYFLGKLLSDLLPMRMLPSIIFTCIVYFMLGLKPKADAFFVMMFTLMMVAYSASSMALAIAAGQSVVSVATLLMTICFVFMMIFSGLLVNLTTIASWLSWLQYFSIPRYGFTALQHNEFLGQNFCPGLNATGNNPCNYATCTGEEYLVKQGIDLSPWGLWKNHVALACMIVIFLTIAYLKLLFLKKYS

[6] = target: ATP-binding cassette sub-family C member 2 (Homo sapiens, UniProt Q92887); assay: Substrates of transporters of clinical importance in the absorption and disposition of drugs, MRP2
ATP-binding cassette sub-family C member 2, sequence (Q92887 whole entry): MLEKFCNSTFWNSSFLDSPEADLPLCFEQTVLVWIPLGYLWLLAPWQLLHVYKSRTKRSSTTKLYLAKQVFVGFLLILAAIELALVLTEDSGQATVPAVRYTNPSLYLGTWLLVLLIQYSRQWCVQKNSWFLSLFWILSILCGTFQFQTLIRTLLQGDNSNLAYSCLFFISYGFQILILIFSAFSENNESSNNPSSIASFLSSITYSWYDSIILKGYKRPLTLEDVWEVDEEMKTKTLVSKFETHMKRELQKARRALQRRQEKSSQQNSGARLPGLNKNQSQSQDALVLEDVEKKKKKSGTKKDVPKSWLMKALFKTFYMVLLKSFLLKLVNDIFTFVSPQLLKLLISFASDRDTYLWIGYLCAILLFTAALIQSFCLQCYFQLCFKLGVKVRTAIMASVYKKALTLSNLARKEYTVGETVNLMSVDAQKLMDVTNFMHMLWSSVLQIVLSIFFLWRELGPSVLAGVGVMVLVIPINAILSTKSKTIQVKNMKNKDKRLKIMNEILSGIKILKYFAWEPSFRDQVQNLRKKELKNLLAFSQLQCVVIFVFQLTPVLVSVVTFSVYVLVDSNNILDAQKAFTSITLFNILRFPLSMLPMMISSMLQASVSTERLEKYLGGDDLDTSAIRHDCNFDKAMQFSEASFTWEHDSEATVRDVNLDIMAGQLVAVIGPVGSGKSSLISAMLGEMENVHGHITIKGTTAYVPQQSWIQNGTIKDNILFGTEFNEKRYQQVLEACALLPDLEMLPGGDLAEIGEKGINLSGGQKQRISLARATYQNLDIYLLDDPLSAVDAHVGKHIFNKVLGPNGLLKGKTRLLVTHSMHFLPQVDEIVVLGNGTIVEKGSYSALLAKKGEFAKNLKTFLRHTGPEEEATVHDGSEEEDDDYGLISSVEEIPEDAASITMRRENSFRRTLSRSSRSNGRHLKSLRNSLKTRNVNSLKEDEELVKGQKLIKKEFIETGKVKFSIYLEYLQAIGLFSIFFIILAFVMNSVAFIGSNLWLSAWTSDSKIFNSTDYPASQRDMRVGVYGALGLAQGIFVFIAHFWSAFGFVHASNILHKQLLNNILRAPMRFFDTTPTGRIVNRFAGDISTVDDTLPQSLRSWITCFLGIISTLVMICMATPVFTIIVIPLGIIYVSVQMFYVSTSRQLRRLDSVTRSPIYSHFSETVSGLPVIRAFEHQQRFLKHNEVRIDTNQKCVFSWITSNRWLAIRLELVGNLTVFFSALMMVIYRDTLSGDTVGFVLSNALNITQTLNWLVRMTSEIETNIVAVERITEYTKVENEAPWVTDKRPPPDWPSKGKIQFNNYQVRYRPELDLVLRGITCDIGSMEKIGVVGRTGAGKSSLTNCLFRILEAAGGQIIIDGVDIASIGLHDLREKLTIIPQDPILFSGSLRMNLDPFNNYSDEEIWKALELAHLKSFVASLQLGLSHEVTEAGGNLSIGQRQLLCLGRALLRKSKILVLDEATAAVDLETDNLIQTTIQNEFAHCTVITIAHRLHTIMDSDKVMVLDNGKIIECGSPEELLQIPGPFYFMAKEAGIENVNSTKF

[7] = target: T6, ATP-binding cassette sub-family C member 4 (Homo sapiens, UniProt O15439); assay: Substrates of transporters of clinical importance in the absorption and disposition of drugs, MRP4
T6 sequence (O15439 whole entry): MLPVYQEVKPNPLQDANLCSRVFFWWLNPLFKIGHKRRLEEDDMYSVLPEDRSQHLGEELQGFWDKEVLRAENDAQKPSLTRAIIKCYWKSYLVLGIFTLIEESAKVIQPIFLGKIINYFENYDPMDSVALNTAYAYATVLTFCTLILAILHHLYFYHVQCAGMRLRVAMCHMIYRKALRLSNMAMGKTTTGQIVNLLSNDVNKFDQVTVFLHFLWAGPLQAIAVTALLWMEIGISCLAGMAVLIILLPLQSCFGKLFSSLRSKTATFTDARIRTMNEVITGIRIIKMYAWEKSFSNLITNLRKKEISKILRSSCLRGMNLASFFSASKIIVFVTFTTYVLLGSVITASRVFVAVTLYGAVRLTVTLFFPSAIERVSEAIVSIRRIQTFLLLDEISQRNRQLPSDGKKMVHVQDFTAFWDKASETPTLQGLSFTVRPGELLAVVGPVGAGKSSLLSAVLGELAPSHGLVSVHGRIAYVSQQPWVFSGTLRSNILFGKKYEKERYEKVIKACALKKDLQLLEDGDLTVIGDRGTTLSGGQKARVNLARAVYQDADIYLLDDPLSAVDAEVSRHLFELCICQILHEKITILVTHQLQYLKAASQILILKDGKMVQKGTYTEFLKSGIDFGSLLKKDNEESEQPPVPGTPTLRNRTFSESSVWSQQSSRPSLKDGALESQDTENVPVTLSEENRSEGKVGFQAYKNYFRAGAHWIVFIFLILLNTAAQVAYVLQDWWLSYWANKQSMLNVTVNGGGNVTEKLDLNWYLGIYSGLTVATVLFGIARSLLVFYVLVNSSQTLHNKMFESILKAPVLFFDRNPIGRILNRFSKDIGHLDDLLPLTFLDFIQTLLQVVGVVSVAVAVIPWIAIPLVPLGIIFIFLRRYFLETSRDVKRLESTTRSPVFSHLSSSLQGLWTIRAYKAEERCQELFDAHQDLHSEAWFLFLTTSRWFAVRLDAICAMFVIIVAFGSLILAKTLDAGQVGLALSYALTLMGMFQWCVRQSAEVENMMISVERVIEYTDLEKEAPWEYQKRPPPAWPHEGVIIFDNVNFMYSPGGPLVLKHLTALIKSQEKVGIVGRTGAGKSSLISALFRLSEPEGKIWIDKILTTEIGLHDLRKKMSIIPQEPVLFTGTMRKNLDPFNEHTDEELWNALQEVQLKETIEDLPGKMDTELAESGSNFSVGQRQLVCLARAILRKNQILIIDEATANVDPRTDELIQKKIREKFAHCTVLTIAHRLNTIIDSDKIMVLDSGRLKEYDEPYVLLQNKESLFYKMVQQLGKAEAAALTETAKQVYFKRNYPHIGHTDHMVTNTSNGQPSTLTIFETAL

Row | Activity [3] | Activity [4] | Activity [7] | Structure (SMILES) | Activity [1] | Activity [2] | Activity [5] | Activity [6]
1 | transporter substrate | transporter substrate | – | C[n+]1ccccc1 | transporter substrate | transporter substrate | – | –
2 | transporter substrate | transporter substrate | – | CN(C)C(=N)N=C(N)N [METFORMIN] | transporter substrate | transporter substrate | – | –
3 | – | – | – | O=C1c2c(O)ccc(O)c2C(=O)c2c(NCCNCCO)ccc(NCCNCCO)c21 [MITOXANTRONE] | – | – | transporter substrate | transporter substrate
4 | transporter substrate | transporter substrate | – | CC[N+](CC)(CC)CC [TETRYLAMMONIUM] | transporter substrate | transporter substrate | – | –
5 | – | – | transporter substrate | CC[C@@]1(O)C(=O)OCc2c1cc1n(c2=O)Cc2cc3c(CN(C)C)c(O)ccc3nc2-1 [TOPOTECAN] | – | – | transporter substrate | –
